According to publication PMC3388095, “Fluorophore Labeled Kinase Detects Ligands That Bind within the MAPK Insert of p38α Kinase” (PLoS ONE, 2012):
Several values for one entry are separate records, joined by “and”; a condition that tells them apart may be missing. Identical values can stand only once.

Legend:
p38α MAPK insert = target: T1, p38α MAPK insert (Homo sapiens, UniProt Q16539, C119S/C162S/S252C); experiment: FLiK direct binding assay, acrylodan-labeled p38α (S252C) MAPK insert / lipid binding site; settings: binding to p38α MAPK insert; ratiometric acrylodan emission; each concentration in triplicate
T1 construct: His-tag with PreScission Protease cleavage site (N); made in house; host or cells: E. coli BL21(DE3) Codon+RIL
T1 sequence (Q16539 whole entry C119S/C162S/S252C): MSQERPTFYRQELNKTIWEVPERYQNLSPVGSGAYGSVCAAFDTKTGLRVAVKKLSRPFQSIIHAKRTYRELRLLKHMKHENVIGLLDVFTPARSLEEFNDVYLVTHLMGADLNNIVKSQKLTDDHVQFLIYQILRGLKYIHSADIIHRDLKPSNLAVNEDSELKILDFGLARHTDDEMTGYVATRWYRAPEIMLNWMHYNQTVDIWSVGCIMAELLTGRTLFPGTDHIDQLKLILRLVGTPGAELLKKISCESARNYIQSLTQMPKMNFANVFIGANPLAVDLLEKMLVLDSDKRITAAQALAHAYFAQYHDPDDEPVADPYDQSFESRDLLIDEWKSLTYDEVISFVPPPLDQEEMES
Description: The human p38α kinase construct containing the mutations required for specific labeling (C119S/C162S/S252C) as well as wild type p38α were cloned into a pOPINF vector and transformed as an N-terminal His-tag construct with a PreScission Protease cleavage site into BL21(DE3) Codon+RIL E. coli. Protein expression, purification, fluorophore labeling and verification of mono-labeling of the kinase were performed essentially as described previously. Labeling of the mutant p38α protein with thiol-reactive acrylodan was carried out by adding a 1.5∶1 molar excess of the fluorophore (dissolved in DMSO) to the purified protein in 50 mM Hepes Buffer (pH 7.0). The mixture was allowed to react in the dark overnight at 4°C. Unreacted acrylodan was subsequently removed by three cycles of buffer exchange into FLiK Measurement Buffer (50 mM Hepes Buffer, pH 7.4+200 mM NaCl) using a 10k-MWCO Centricon. The protein was concentrated to ∼200 μM, aliquoted and frozen at −80°C. Mono-labeling of the protein was verified by ESI-MS as described previously, [24].
Characterization of the fluorescence response of MAP insert-labeled p38α was carried out as described previously for p38α labeled on the activation loop. […] Briefly, a polystyrene cuvette containing a suspension of 50 nM acrylodan-labeled p38α in FLiK Buffer was excited at 386 nm and emission spectra were measured in the absence and presence of increasing concentrations of 1b. The compound was dissolved in 100% DMSO and delivered in sequential small doses to a single sample. […] Ratiometric fluorescence readouts are advantageous in that they provide an internal correction for small errors in sample volume which can affect signal intensity. All measurements of the cuvettes were made with a JASCO FP-6500 fluorescence spectrophotometer (JASCO GmbH, Germany).
The assay was adapted to high-throughput screening formats which enabled KD values to be determined in black small volume assay plates. Briefly, a dilution series of each compound was first prepared in 100% DMSO at 20X the desired final concentration and 1 μL was transferred to the assay plate. Compounds were then mixed with 19 µL of FLiK Buffer (supplemented with 0.01% Triton X-100) containing acrylodan-labeled p38α (100 nM). The final concentration of compound in the dilution series ranged from 0–50 μM (5% v/v DMSO final). Plates were covered with an adhesive aluminum foil and incubated for 30 min at RT prior to measurement of emission intensities at 470 and 520 nm using a Tecan Safire^2 plate reader. […] Binding curves were plotted using the ratio R = I520/I470 to determine the KD.

[1] = test system: panel of 95 different kinases; experiment: Kinase selectivity profile, 33P-ATP filter-binding assay (whole panel); type: biochemical; settings: 10 µM; 95 kinases
Description: Figure 5 Kinase selectivity profile of 1b. Compound 1b was profiled against a selected panel of 95 different kinases at a concentration of 10 µM employing a radioactive (^33P-ATP) filter-binding assay (National Centre for Protein Kinase Profiling, Dundee). The numbers represent the remaining kinase activity in %. […]

Nc1ccc2c(NC3CC3)nc(-c3ccccc3)nc2c1 [1b, N^4-Cyclopropyl-2-phenyl-4,7-quinazolinediamine]
Kd (p38α MAPK insert): ~2.4 µM and 2.4 µM
inhibition of enzymatic activity across kinase panel [1]: does not inhibit enzymatic activity of any of the tested kinases
